The values below come from EP4748844A1, “AZETIDINE COMPOUND AND MEDICAL USE THEREOF” (SHANGHAI INSTITUTE OF MATERIA MEDICA, CHINESE ACADEMY OF …, priority 2023, dated 2025).

Broadly, the IC50 is the concentration needed to halve the response being measured. The low end stands for greater potency in that assay, the high end for weaker potency in that assay.

Some results are limits rather than exact numbers.

In assay [1] the test system is ISG gene expression induced by MSA-2 in human THP1-Blue-ISG cells. Kind of assay: Inhibition of MSA-2-induced ISG gene expression in human THP1-Blue-ISG cells (Quanti-Blue, OD650). It counts as cell-based. The settings on record: STING agonist MSA-2 10 µM, incubated for 24 hours. As for the experimental part: 10 µL of compound diluted with PBS/physiological saline was added to each well of a 96 well cell culture plate. The STING agonist was MSA-2, which was added to the counted cell suspension at a final concentration of 10 µM. For the control group without compounds, 10 µL of PBS/physiological saline containing 2% DMSO was added. 3 replicate wells were set in each group. THP1-Blue-ISG cells were counted and adjusted to a cell concentration of 4× 10^5/mL, and 190 µL of cells containing STING agonist were added to each well for incubation. Therefore, the final volume of each test well was 200 µL, the content of DMSO was 0.1%, and the final concentration of the compound tested was 10/3.3/1.1/0.4/0.13/0.04/0.013/0.004 µM, incubated for 24 hours. In addition, 190 µL of cells without STING agonist and 10 µL of physiological saline containing 2% DMSO were added to the blank group. 3 replicate wells were set in each group.
After 24 hours, 20 µL of culture medium was taken from each well and transferred to a new 96 well plate. 180 µL of chromogenic solution Quanti-Blue was added. The plate was placed in a 37 °C incubator. After 2 hours, the OD650 values were measured.
Result analysis: Inhibition rate (%) = (Con(OD650)−Treated(OD650))/Con(OD650) × 100% [formula]
The IC50 calculation of inhibitors was implemented using the Graphpad Prism 8 software's calculation method log (inhibitor) vs. response - Variable slope (four parameters), with a constrain interval of 0-100.

In assay [2] the test system is DMXAA induced ISG gene expression in mouse RAW-Lucia cells. Kind of assay: Inhibition of DMXAA-induced ISG gene expression in mouse RAW-Lucia cells (QUANTI-Luc). It counts as cell-based. The settings on record: STING agonist DMXAA 50 µM, incubated for 24 hours. An outline of the steps:
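RAW-Lucia cells (4×10^5/mL) stimulated with 50 µM DMXAA and co-incubated 24 h with compound at 10 to 0.004 µM (3-fold steps, 0.1% DMSO). Secreted luciferase in supernatant read with QUANTI-Luc; inhibition calculated against DMXAA-only control, IC50 from four-parameter variable-slope fit constrained 0–100.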

Consider `CC1(C)C(=O)N(CC2CN(c3ccccc3)C2)c2cc(C(=O)Nc3c[nH]c4ccccc34)ccc21` [Example I-11, N-(1H-indol-3-yl)-3,3-dimethyl-2-oxo-1-((1-phenylazetidin-3-yl)methyl)indolin-6-carboxamide], for which the values for the IC50 in assay [1] and in assay [2] were 180 nM and 23 nM, respectively.
For the compound `CC1(C)C(=O)N(CC2CN(c3cc(Cl)cc(C(F)(F)F)c3)C2)c2cc(C(=O)Nc3c[nH]c4ccccc34)ccc21` [Example I-18], the IC50 stood at 56 nM in assay [1] and 19 nM in assay [2].
Turning to `CC1(C)C(=O)N(Cc2ccccc2)c2cc(NC(=O)c3c[nH]c4ccccc34)ccc21` [C, reference compound], the IC50 worked out at 1540 nM in assay [1] and 188 nM in assay [2].
As for `CC1(C)C(=O)N(Cc2ccsc2)c2cc(NC(=O)c3c[nH]c4ccccc34)ccc21` [B, reference compound], the values for the IC50 in assay [1] and in assay [2] were above 10000 nM and above 1000 nM, respectively.
With `CC1(C)C(=O)N(CC2CN(c3cc(F)cc(C(F)(F)F)c3)C2)c2cc(C(=O)Nc3c[nH]c4ccccc34)ccc21` [Example I-17], the IC50 is 32 nM in assay [1] and 6.8 nM in assay [2].
